# What was measured:
# Pneumocystis carinii = assay: Treatment of Pneumocystis carinii pneumonia in Sprague-Dawley rats (extent of disease by histologic score); assay type: in vivo, male Sprague-Dawley rats; conditions: for Extent of Disease by Histologic Score: number of animals with score 0.5 / Extent of Disease by Histologic Score: number of animals with score 1 / Extent of Disease by Histologic Score: number of animals with score 2 / Extent of Disease by Histologic Score: number of animals with score 3 / Extent of Disease by Histologic Score: number of animals with score 4: 14 days; for Extent of Disease by Histologic Score: number of animals with score 0.5 / Extent of disease by histologic score (combined): number of animals in scoring group 0.5: 0.5 = <10 cysts found per 2 sections; for Extent of Disease by Histologic Score: number of animals with score 1 / Extent of disease by histologic score (combined): number of animals in scoring group 1: 1 = scattered cysts, <5% of lung involved; for Extent of Disease by Histologic Score: number of animals with score 2 / Extent of disease by histologic score (combined): number of animals in scoring group 2: 2 = scattered cysts; for Extent of Disease by Histologic Score: number of animals with score 2: 5-10% lung involved or small foci of infection; for Extent of Disease by Histologic Score: number of animals with score 3 / Extent of disease by histologic score (combined): number of animals in scoring group 3: 3 = scattered cysts; for Extent of Disease by Histologic Score: number of animals with score 3: 10-50% of lung involved with some intense areas of infection; for Extent of Disease by Histologic Score: number of animals with score 4: 4 = >50% of lung involved with many intense areas of focal infection; for Extent of disease by histologic score (combined): number of animals in scoring group 0.5 / Extent of disease by histologic score (combined): number of animals in scoring group 1 / Extent of disease by histologic score (combined): number of animals in scoring group 2 / Extent of disease by histologic score (combined): number of animals in scoring group 3 / Extent of disease by histologic score (combined): number of animals in scoring group 4: Table XII composite; for Extent of disease by histologic score (combined): number of animals in scoring group 2: 5-10% of lung involved; for Extent of disease by histologic score (combined): number of animals in scoring group 3: 10-50% of lung involved; for Extent of disease by histologic score (combined): number of animals in scoring group 4: 4 = >50% of lung involved; for Efficacy in treating PCP compared with control: compound at 5 mg/kg; for Efficacy in treating PCP compared with pentamidine: 10 mg/kg unless otherwise noted
# Method: Induction and Treatment Of Pneumocystis Carinii in Sprague-Dawley Rats
# Male Sprague-Dawley rats, barrier raised, non-certified virus free, weighing 150-200g were obtained from Hilltop Laboratories and housed individually. Animals were begun on a low (8%) protein diet (ICN Biomedicals, Cincinnati, OH) and drinking water containing tetracycline (0.5 mg/ml) and dexamethasone (1.0 μg/ml) immediately upon arrival. This treatment was given for the next 8 weeks, monitoring fluid intake daily and weighing animals weekly. Dilutions of the drinking solution were made when animals consumed too much fluid so as to prevent cortisone poisoning. At the beginning of the sixth week, animals were divided into groups of 8 animals each and the test compounds were administered daily by i.v. injection at a dose of 10 mg/kg, unless otherwise noted, for the next 14 days.
# Animals were sacrificed at the end of the eighth week by chloroform inhalation and the left lung was removed aseptically and placed in sterile Hank's balanced salts solution without calcium or magnesium (HBSS-) for the ground tissue procedure. The right lung was inflated in situ with 10% […] and removed for histologic examination GMS staining. […]
# [1] = Toxicity of amidines in rats (standard laboratory procedure); assay type: in vivo; conditions: rat, in vivo; for Toxicity of amidines: Effect: 5 mg/kg
# Method: Compounds having the structure represented by Formula I were synthesized in accordance with the appropriate procedures discussed previously. The reaction schemes shown in Charts I-III specifically identify the methodology used to synthesize the compounds of the respective examples. The compounds which were synthesized are shown in Table IA and the elemental analysis and melting points of the compounds are shown in Table IB. Most of the compounds were tested for toxicity in rats using standard laboratory procedure and the results of that toxicity testing are shown in Table XII. The compounds of Examples 31, 32, and 34 were not synthesized but may be synthesized in the general manner discussed previously.
SMILES,Extent of Disease by Histologic Score: number of animals with score 0.5 (Pneumocystis carinii; 5 mg/kg i.v. daily),Extent of Disease by Histologic Score: number of animals with score 1 (Pneumocystis carinii; 5 mg/kg i.v. daily),Extent of Disease by Histologic Score: number of animals with score 2 (Pneumocystis carinii; 5 mg/kg i.v. daily),Extent of Disease by Histologic Score: number of animals with score 3 (Pneumocystis carinii; 5 mg/kg i.v. daily),Extent of Disease by Histologic Score: number of animals with score 4 (Pneumocystis carinii; 5 mg/kg i.v. daily),Extent of disease by histologic score (combined): number of animals in scoring group 0.5 (Pneumocystis carinii; tested at 5 mg/kg),Extent of disease by histologic score (combined): number of animals in scoring group 1 (Pneumocystis carinii; tested at 5 mg/kg),Extent of disease by histologic score (combined): number of animals in scoring group 2 (Pneumocystis carinii; tested at 5 mg/kg),Extent of disease by histologic score (combined): number of animals in scoring group 3 (Pneumocystis carinii; tested at 5 mg/kg),Extent of disease by histologic score (combined): number of animals in scoring group 4 (Pneumocystis carinii; tested at 5 mg/kg),Efficacy in treating PCP compared with control (Pneumocystis carinii),Toxicity of amidines: Effect [1],Extent of Disease by Histologic Score: number of animals with score 0.5 (Pneumocystis carinii; 10 mg/kg i.v. daily),Extent of Disease by Histologic Score: number of animals with score 1 (Pneumocystis carinii; 10 mg/kg i.v. daily),Extent of Disease by Histologic Score: number of animals with score 2 (Pneumocystis carinii; 10 mg/kg i.v. daily),Extent of Disease by Histologic Score: number of animals with score 3 (Pneumocystis carinii; 10 mg/kg i.v. daily),Extent of Disease by Histologic Score: number of animals with score 4 (Pneumocystis carinii; 10 mg/kg i.v. daily),Efficacy in treating PCP compared with pentamidine (Pneumocystis carinii),Extent of disease by histologic score (combined): number of animals in scoring group 0.5 (Pneumocystis carinii; 10 mg/kg),Extent of disease by histologic score (combined): number of animals in scoring group 1 (Pneumocystis carinii; 10 mg/kg),further results
COc1cc(C(=N)N)ccc1OCCCOc1ccc(C(=N)N)cc1OC [Example 6],7 animals,1 animals,0 animals,0 animals,0 animals,7 animals,1 animals,0 animals,0 animals,0 animals,"significantly better, at one half the dose, than the control",None,,,,,,,,,
N=C(N)c1ccc(NCCCCNc2ccc(C(=N)N)cc2)cc1 [Example 8],,,,,,,,,,,,,3 animals,1 animals,0 animals,0 animals,0 animals,better than or equal to pentamidine,3 animals,1 animals,Extent of disease by histologic score (combined): number of animals in scoring group 2 (Pneumocystis carinii; 10 mg/kg): 0 animals; Extent of disease by histologic score (combined): number of animals in scoring group 3 (Pneumocystis carinii; 10 mg/kg): 0 animals; Extent of disease by histologic score (combined): number of animals in scoring group 4 (Pneumocystis carinii; 10 mg/kg): 0 animals; Deaths by day 7 [1]: 3 deaths
COc1cc(C(=N)N)ccc1OCCCCOc1ccc(C(=N)N)cc1OC [Example 11],3 animals,4 animals,1 animals,0 animals,0 animals,3 animals,4 animals,1 animals,0 animals,0 animals,"significantly better, at one half the dose, than the control",None,,,,,,,,,
c1cc(C2=NCCN2)ccc1OCCCCCOc1ccc(C2=NCCN2)cc1 [Example 30],,,,,,,,,,,,,5 animals,3 animals,0 animals,0 animals,0 animals,comparable to or perhaps slightly better than pentamidine,5 animals,3 animals,Extent of disease by histologic score (combined): number of animals in scoring group 2 (Pneumocystis carinii; 10 mg/kg): 0 animals; Extent of disease by histologic score (combined): number of animals in scoring group 3 (Pneumocystis carinii; 10 mg/kg): 0 animals; Extent of disease by histologic score (combined): number of animals in scoring group 4 (Pneumocystis carinii; 10 mg/kg): 0 animals

# From US4933347A, “Diamidines and bis(imidazolines) for the treatment of and prophylaxis against pneumocystis carinii pneumonia” (University of North Carolina at Chapel Hill, priority 1988, dated 1990)
